Assay results taken from BindingDB's records for doi:10.1016/j.chembiol.2016.11.011 (McMaster University, 2017).

Biological target: 2''-aminoglycoside nucleotidyltransferase (Pseudomonas aeruginosa (g-Proteobacteria))
Assay: In Vitro ANT(2")-Ia Pyrophosphatase Assay
Method: In vitro ANT(2")-Ia pyrophosphatase assays were performed as described previously (Cox et al., 2015; Hirsch et al., 2014), with minor modifications. To improve compound solubility, Tween 20 was added to a final concentration of 0.01% (v/v) and compounds were added at a final concentration of 2% (v/v) DMSO. The enzyme ([…] reaction volume) was incubated with compound for 10 min at 25 °C, prior to initiation of the reaction with nucleotide. All inhibitory assays were performed with kanamycin B kept at Km (Cox et al., 2015; Hirsch et al., 2014).

| SMILES | Ki |
| --- | --- |
| CS(=O)(=O)CCNCc1ccc(-c2ccc3ncnc(Nc4ccc(OCc5ccccc5)c(Cl)c4)c3c2)o1 | 60 µM |
| [O-][S+]1CCN(Cc2ccc(-c3ccc4ncnc(Nc5ccc(OCc6ccccc6)c(Cl)c5)c4c3)o2)CC1 [(4-benzyloxy-3-chloro-phenyl)-{6-[5-(1-oxo-1lambda*4*-thiomorpholin-4-ylmethyl)-furan-2-yl]-quinazolin-4-yl}-amine] | 12.9 µM |
